PubChem BioAssay (NCI)
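Briefly, cells in 96-well plates were exposed to five compound concentrations for 48 h, and endpoints were estimated by linear interpolation. GI50 is the concentration that inhibits growth by half. At the TGI there is no net growth.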

Columns and labels:
Assay in all cases: NCI-60 cell line screen, 48 h
[1] = tested on: 786-0 renal
[2] = tested on: A549 NSCLC
[3] = tested on: ACHN renal
[4] = tested on: BT-549 breast
[5] = tested on: CAKI-1 renal
[6] = tested on: CCRF-CEM leukemia
[7] = tested on: COLO 205 colon
[8] = tested on: DU-145 prostate
[9] = tested on: EKVX NSCLC
[10] = tested on: HCC-2998 colon
[11] = tested on: HCT-116 colon
[12] = tested on: HCT-15 colon
[13] = tested on: HL-60(TB) leukemia
[14] = tested on: HOP-62 NSCLC
[15] = tested on: HOP-92 NSCLC
[16] = tested on: HS 578T breast
[17] = tested on: HT29 colon
[18] = tested on: IGROV1 ovarian
[19] = tested on: K-562 leukemia
[20] = tested on: KM12 colon
[21] = tested on: LOX IMVI melanoma
[22] = tested on: M14 melanoma
[23] = tested on: MALME-3M melanoma
[24] = tested on: MCF7 breast
[25] = tested on: MDA-MB-231 breast
[26] = tested on: MDA-MB-435
[27] = tested on: MDA-MB-468 breast
[28] = tested on: MOLT-4 leukemia
[29] = tested on: NCI-H226 lung
[30] = tested on: NCI-H23 lung
[31] = tested on: NCI-H460 lung
[32] = tested on: NCI-H522 lung
[33] = tested on: NCI/ADR-RES ovarian
[34] = tested on: OVCAR-3 ovarian
[35] = tested on: OVCAR-4 ovarian
[36] = tested on: OVCAR-5 ovarian
[37] = tested on: OVCAR-8 ovarian
[38] = tested on: PC-3 prostate
[39] = tested on: RPMI-8226 leukemia
[40] = tested on: RXF 393 renal
[41] = tested on: SF-268 CNS
[42] = tested on: SF-295 CNS
[43] = tested on: SF-539 CNS
[44] = tested on: SK-MEL-2 melanoma
[45] = tested on: SK-MEL-28 melanoma
[46] = tested on: SK-MEL-5 melanoma
[47] = tested on: SK-OV-3 ovarian
[48] = tested on: SN12C renal
[49] = tested on: SNB-19 CNS
[50] = tested on: SNB-75 CNS
[51] = tested on: SW-620 colon
[52] = tested on: T-47D breast
[53] = tested on: TK-10 renal
[54] = tested on: U251 CNS
[55] = tested on: UACC-257 melanoma
[56] = tested on: UACC-62 melanoma
[57] = tested on: UO-31 renal

## CN(C)c1nc(NCCNS(=O)(=O)c2ccc(C3=Nc4c(N)nc(N)nc4NC(c4ccccc4)C3)cc2)nc(Nc2ccc(F)cc2)n1 (centres undefined)
[1]
  GI50: 7.88 µM
  TGI: > 100 µM
[2]
  GI50: > 100 µM
  TGI: > 100 µM
[3]
  GI50: > 100 µM
  TGI: > 100 µM
[4]
  GI50: 8.82 µM
  TGI: > 100 µM
[5]
  GI50: 9.73 µM
  TGI: > 100 µM
[6]
  GI50: 4.02 µM
  TGI: > 100 µM
[7]
  GI50: 16.4 µM
  TGI: > 100 µM
[8]
  GI50: > 100 µM
  TGI: > 100 µM
[9]
  GI50: 6.65 µM
  TGI: > 100 µM
[10]
  GI50: 11.7 µM
  TGI: > 100 µM
[11]
  GI50: 7.37 µM
  TGI: > 100 µM
[12]
  GI50: > 100 µM
  TGI: > 100 µM
[13]
  GI50: 4.24 µM
  TGI: > 100 µM
[14]
  GI50: 99.7 µM
  TGI: > 100 µM
[15]
  GI50: 2.18 µM
  TGI: 9.96 µM
[16]
  GI50: 6.43 µM
  TGI: > 100 µM
[17]
  GI50: 5.32 µM
  TGI: > 100 µM
[18]
  GI50: 5.76 µM
  TGI: > 100 µM
[19]
  GI50: 4.33 µM
  TGI: > 100 µM
[20]
  GI50: 8.8 µM
  TGI: > 100 µM
[21]
  GI50: 9.96 µM
  TGI: 25.7 µM
[22]
  GI50: 24.4 µM
  TGI: > 100 µM
[23]
  GI50: 7.34 µM
  TGI: > 100 µM
[24]
  GI50: 3.85 µM
  TGI: 85.5 µM
[25]
  GI50: 6.16 µM
  TGI: 67.5 µM
[26]
  GI50: 15 µM
  TGI: > 100 µM
[27]
  GI50: 3.37 µM
  TGI: 13.7 µM
[28]
  GI50: 3.11 µM
  TGI: > 100 µM
[29]
  GI50: > 100 µM
  TGI: > 100 µM
[30]
  GI50: > 100 µM
  TGI: > 100 µM
[31]
  GI50: 6.49 µM
  TGI: > 100 µM
[32]
  GI50: 77.4 µM
  TGI: > 100 µM
[33]
  GI50: > 100 µM
  TGI: > 100 µM
[34]
  GI50: 69.3 µM
  TGI: > 100 µM
[35]
  GI50: 74.6 µM
  TGI: > 100 µM
[36]
  GI50: > 100 µM
  TGI: > 100 µM
[37]
  GI50: 61.4 µM
  TGI: > 100 µM
[38]
  GI50: 3.84 µM
  TGI: > 100 µM
[39]
  GI50: 3.32 µM
  TGI: > 100 µM
[40]
  GI50: 2.55 µM
  TGI: 8.95 µM
[41]
  GI50: 9.85 µM
  TGI: > 100 µM
[42]
  GI50: 9.5 µM
  TGI: > 100 µM
[43]
  GI50: 12 µM
  TGI: 63.8 µM
[44]
  GI50: 28.5 µM
  TGI: > 100 µM
[45]
  GI50: > 100 µM
  TGI: > 100 µM
[46]
  GI50: 5.81 µM
  TGI: 20.5 µM
[47]
  GI50: > 100 µM
  TGI: > 100 µM
[48]
  GI50: 7.83 µM
  TGI: > 100 µM
[49]
  GI50: 21.8 µM
  TGI: > 100 µM
[50]
  GI50: 3.58 µM
  TGI: > 100 µM
[51]
  GI50: 40.4 µM
  TGI: > 100 µM
[52]
  GI50: 5.12 µM
  TGI: > 100 µM
[53]
  GI50: > 100 µM
  TGI: > 100 µM
[54]
  GI50: 18.4 µM
  TGI: > 100 µM
[55]
  GI50: 87.2 µM
  TGI: > 100 µM
[56]
  GI50: 31.5 µM
  TGI: > 100 µM
[57]
  GI50: > 100 µM
  TGI: > 100 µM
